This is an account of results in patent US20260108614A1, “IMMOBILIZED ENDOGLYCOSIDASE FUSION PROTEIN AND USE THEREOF” (GENEQUANTUM HEALTHCARE (SUZHOU) CO., LTD., priority 2022, published 2026).

For one experiment, the system named is TROP2-positive cells. Nature of the experiment: Tumor cell proliferation inhibition, TROP2-positive cells as a group. The class given is cell-based, human. The following applies: Example 19; BxPC-3 and FaDu. The procedure: (§1) 1) ErbB2/Her2-positive human breast cancer cells BT-474, ErbB2/Her2-positive human gastric cancer cells NCI-N87 and ErbB2/Her2-negative human liver cancer cells HepG2 were inoculated into a 96-well cell plate at 100 μl/well (1000 to 10000 cells), and incubated overnight in a cell incubator under the conditions of 37° C., 5% CO2, and 100% humidity.
(§2) Incubation was further performed at 37° C. for 72 to 120 h.
(§3) 3) The cell plate was removed from the 37° C. cell incubator, and equilibrated for about 30 min to room temperature. 100 μl of CellTiter Glo reagent was added into each well, a shaker shook for 2 min, followed by standing in a dark place at room temperature for 10 min, and a relative light unit (RLU) was measured with an MD M4 microplate reader.
(§4) BxPC-3, FaDu, HepG2 and other human tumor cells were selected.
(§5) TROP2-positive human tumor cells such as BxPC-3 (human pancreatic cancer cell) and FaDu (human throat cancer cell), and TROP2-negative tumor cells such as HepG2 (human liver cancer cell) were selected.

The test system of experiment [1] is human liver cancer cells HepG2. Nature of the experiment: Tumor cell proliferation inhibition (CellTiter Glo), HepG2. It is filed as cell-based. Conditions: "—" = undetected, read-out: Inhibitory effect on proliferation of Tumor Cells (IC50, nM), HepG2. The procedure:
as §1, §2, §3, §4, §5

Experiment [2] deals with BxPC-3 (human pancreatic cancer cell). The experiment can be described thus: Tumor cell proliferation inhibition, BxPC-3. The class given is cell-based. Conditions: Table 7; TROP2-positive; "—" = undetected; read-out: Inhibitory effect on proliferation of Tumor Cells (IC50, nM), BxPC-3. The procedure: as §1, §2, §3, §4, §5
Experiment [3] concerns ErbB2/Her2-positive human gastric cancer cells NCI-N87. Nature of the experiment: Tumor cell proliferation inhibition (CellTiter Glo), NCI-N87. The class given is cell-based. The following applies: Table 3; incubation 72 to 120 h; "—" = undetected; read-out: Inhibitory effect on proliferation of Tumor Cells (IC50, nM), NCI-N87. The procedure:
as §1, §2, §3

Experiment [4] relates to ErbB2/Her2-positive human breast cancer cells BT-474. Nature of the experiment: Tumor cell proliferation inhibition (CellTiter Glo), BT-474. The class given is cell-based. The following applies: Table 3; incubation 72 to 120 h; "—" = undetected; read-out: Inhibitory effect on proliferation of Tumor Cells (IC50, nM), BT-474. The procedure: as §1, §2, §3
In experiment [5] the test system is FaDu (human throat cancer cell). The experiment can be described thus: Tumor cell proliferation inhibition, FaDu. The class given is cell-based. Conditions: Table 7; TROP2-positive; "—" = undetected; read-out: Inhibitory effect on proliferation of Tumor Cells (IC50, nM), FaDu. The procedure:
as §1, §2, §3, §4, §5

The test system of experiment [6] is ErbB2/Her2-positive cells. The experiment can be described thus: Tumor cell proliferation inhibition, ErbB2/Her2-positive cells as a group. The following applies: Example 9; BT-474 and NCI-N87. It is filed as cell-based, human.

SMILES strings stand for the structures. Where two headings read alike, the source gives them in different places. Square brackets hold non-standard residues; d marks the D form. Peptide text beside a SMILES is read from it. * marks the point of attachment. Dolaproine = CO[C@@H]([C@@H]1CCCN1)[C@@H](C)C(=O)O; Dil = CC[C@H](C)[C@H](NC)[C@@H](CC(=O)O)OC; X1 = C[C@@H](N*)[C@@H](O)c1ccccc1; NMeV = CN[C@H](C(=O)O)C(C)C

`CC[C@H](C)[C@@H]([C@@H](CC(=O)N1CCC[C@H]1[C@H](OC)[C@@H](C)C(=O)N[C@H](C)[C@@H](O)c1ccccc1)OC)N(C)C(=O)[C@@H](NC(=O)[C@@H](NC)C(C)C)C(C)C` [MMAE, monomethylauristatin E, reference compound] (H-[NMeV]V[Dil][Dolaproine]-X1): in the experiment with TROP2-positive cells, the “inhibitory effect on proliferation of the TROP2-positive cells (in words)” value was “obvious inhibitory effect”. For the same compound, the IC50 worked out at 0.567 nM in experiment [1] (Table 3, ErbB2/Her2-negative cells, incubation 72 to 120 h); 0.398 nM in experiment [1] (Table 7, TROP2-negative); 0.388 nM in experiment [2]; 0.248 nM in experiment [3]; 0.272 nM in experiment [4]; 0.167 nM in experiment [5]. In addition, in experiment [6], the “inhibitory effect on proliferation of the ErbB2/Her2-positive cells (in words)” value is on record as “obvious inhibitory effect”.
